# Results: ChEMBL document CHEMBL1201862, “PubChem BioAssay data set” (2004)
# Calls of active or inactive are those of the source.
# Columns and labels:
# [1] = HEK-293T viability loss after treatment – luminescence, T-cell screen hits, cytotoxicity control for TCR NF-kB inhibitor project, dose response (AID 489026); format: functional, cell-based;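 note: cells exposed to compound about 14 hours before the viability readout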
# Estrogen receptor beta = Estrogen receptor beta (Homo sapiens, UniProt Q92731); test: blockers of SRC-3 recruitment to ERβ – biochemical, ELISA, streptavidin-HRP readout, orthogonal assay, confirmation (AID 1060)
# Vero = test: cells; format: functional; conditions: Chlorocebus sabaeus
# [2] = microbe, parasite or virus in culture; format: functional; conditions: Mycobacterium tuberculosis
# [3] = Luminescence Cell-Based Dose Response to Identify Activators of Luciferase Translation or Activity in H4-C Neuroglioblastoma Cells. [Related pubchem assays: 1829 (Project Summary), 1814 (Primary HTS)]; format: functional
# [4] = Luminescence Cell-Based Dose Response to Identify Activators of 5'UTR Stem-Loop Driven Prion Protein mRNA Translation in H4-C Neuroglioblastoma Cells. [Related pubchem assays: 1829 (Project Summary), 1814 (Primary HTS)]; format: functional
# [5] = Luminescence Cell-Based Dose Confirmation to Identify Activators of 5'UTR Stem-Loop Driven Alpha-Synuclein mRNA Translation in H4 Neuroglioblastoma Cells. [Related pubchem assays: 1829 (Project Summary), 1814 (Primary HTS)]; format: functional
# [6] = Luminescence Cell-Based Dose Response HTS to Identify Activators of Luciferase Translation or Activity in H4 […] Cells. [Related pubchem assays: 1829 (Project Summary), 1814 (Primary HTS)]; format: functional
# [7] = viability of uninfected HEp-2 cells – cell-based, HTS, cytotoxicity control for RSV inhibitor project, dose response (AID 2410); format: functional; conditions: human respiratory syncytial virus
# [8] = test system: Streptococcus sp. 'group A'; test: Streptococcus pyogenes SK(-)GAS viability under kanamycin – luminescence, BacTiterGlo, confirmation, counter-screen for streptokinase expression inhibitor project, dose response (AID 1900); format: functional, organism-based
# Streptokinase A = molecular target: T1, Streptokinase A (Streptococcus pyogenes serotype M1, UniProt P10520); test: viability-normalized secreted streptokinase activity reduction – plasminogen activation absorbance, OD405, dose response (AID 1914); format: functional, Streptococcus pyogenes M1 GAS;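 note: secreted streptokinase activity via plasminogen activation per viability signal from cell pellet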
# T1 sequence (P10520 whole entry): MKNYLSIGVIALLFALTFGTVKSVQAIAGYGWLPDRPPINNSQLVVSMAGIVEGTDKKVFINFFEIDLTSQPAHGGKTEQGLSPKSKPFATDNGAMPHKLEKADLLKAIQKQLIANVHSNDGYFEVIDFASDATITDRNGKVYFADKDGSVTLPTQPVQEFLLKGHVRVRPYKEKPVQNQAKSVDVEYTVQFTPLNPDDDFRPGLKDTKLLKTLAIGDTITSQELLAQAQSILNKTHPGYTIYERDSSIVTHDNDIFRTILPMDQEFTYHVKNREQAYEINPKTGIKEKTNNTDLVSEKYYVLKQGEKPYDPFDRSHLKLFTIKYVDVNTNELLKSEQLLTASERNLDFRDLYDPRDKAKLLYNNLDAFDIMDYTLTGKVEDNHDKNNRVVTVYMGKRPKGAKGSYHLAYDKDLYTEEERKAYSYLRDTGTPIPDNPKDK
# Streptococcus = test: GAS UMAA2166 growth inhibition – luminescence, BacTiterGlo, counter-screen for streptokinase expression inhibitor project, dose response (AID 1915); format: functional, organism-based;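 note: potency for reduction of bacterial viability or growth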
# CAAX prenyl protease 2 = molecular target: T2, CAAX prenyl protease 2 (Saccharomyces cerevisiae S288c, UniProt Q03530); format: biochemical
# T2 sequence (Q03530 whole entry): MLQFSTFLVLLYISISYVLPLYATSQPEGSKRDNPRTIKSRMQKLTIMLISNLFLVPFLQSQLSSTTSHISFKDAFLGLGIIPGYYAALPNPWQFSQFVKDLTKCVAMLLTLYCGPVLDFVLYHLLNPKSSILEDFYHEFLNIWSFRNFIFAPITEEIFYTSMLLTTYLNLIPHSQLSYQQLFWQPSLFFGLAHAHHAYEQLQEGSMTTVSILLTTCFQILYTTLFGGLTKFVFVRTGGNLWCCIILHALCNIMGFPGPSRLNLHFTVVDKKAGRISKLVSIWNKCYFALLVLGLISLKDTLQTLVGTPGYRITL
# Melanocortin receptor 4 = Melanocortin receptor 4 (Homo sapiens, UniProt P32245); test: inhibitors of MC4R cAMP signaling – cell-based, TR-FRET, biased antagonists, dose response (AID 602298); format: functional;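 note: antagonist potency against agonist-stimulated cAMP production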
# [9] = cAMP pathway inhibition in counterscreen cell line – TR-FRET cAMP detection, counter-screen for MC4R biased antagonist project, dose response (AID 602305); format: functional, cell-based;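 note: U2OS cells stimulated with forskolin near its EC80 as the cAMP inducer; potency is for inhibition of forskolin-stimulated cAMP signaling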
# [10] = molecular target: G-protein coupled receptor 55 (Homo sapiens, UniProt Q9Y2T6); test: inhibition of LPI-stimulated GPR55 beta-arrestin translocation – imaging, U2OS, beta-arrestin-GFP, LPI agonist, primary screen (AID 2013); format: functional;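 note: antagonist potency measured as reduced agonist-driven arrestin aggregation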
# [11] = molecular target: T3, Ubiquitin-conjugating enzyme E2 N (Homo sapiens, UniProt P61088); format: functional;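 note: Dose-response confirmation in a TR-FRET assay detecting UBC13-driven polyubiquitin chain formation, inhibition measured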
# T3 sequence (P61088 whole entry): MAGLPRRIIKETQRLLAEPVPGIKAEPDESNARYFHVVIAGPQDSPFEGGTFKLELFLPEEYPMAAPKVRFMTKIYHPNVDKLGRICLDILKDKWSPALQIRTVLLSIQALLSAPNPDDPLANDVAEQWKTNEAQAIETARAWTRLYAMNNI
# [12] = molecular target: T4, RNA-binding protein pos-1 (Caenorhabditis elegans, UniProt G5EF15); test: disruptors of C. elegans POS-1 RNA interaction – biochemical, fluorescence polarization, dose response (AID 1964);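 note: purified POS-1 fused to maltose binding protein made in E. coli; potency of compounds blocking POS-1 binding to fluorescent RNA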
# T4 sequence (G5EF15 whole entry): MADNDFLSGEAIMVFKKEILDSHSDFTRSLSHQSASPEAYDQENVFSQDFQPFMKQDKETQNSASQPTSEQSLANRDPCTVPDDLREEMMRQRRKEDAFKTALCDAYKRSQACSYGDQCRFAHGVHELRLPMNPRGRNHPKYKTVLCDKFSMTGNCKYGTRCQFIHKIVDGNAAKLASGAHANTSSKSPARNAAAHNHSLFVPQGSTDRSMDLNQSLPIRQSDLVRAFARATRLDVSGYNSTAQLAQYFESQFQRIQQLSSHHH
# Nonstructural protein 1 = Nonstructural protein 1 (Influenza A virus, UniProt Q194T2); format: functional, Influenza A virus (A/California/07/2009(H1N1))
# [13] = molecular target: T5, Zinc finger protein mex-5 (Caenorhabditis elegans, UniProt Q9XUB2); test: potency of MEX-5 RNA-binding blockers – biochemical, C. elegans, fluorescence polarization, dose response (AID 1960)
# T5 sequence (Q9XUB2 whole entry): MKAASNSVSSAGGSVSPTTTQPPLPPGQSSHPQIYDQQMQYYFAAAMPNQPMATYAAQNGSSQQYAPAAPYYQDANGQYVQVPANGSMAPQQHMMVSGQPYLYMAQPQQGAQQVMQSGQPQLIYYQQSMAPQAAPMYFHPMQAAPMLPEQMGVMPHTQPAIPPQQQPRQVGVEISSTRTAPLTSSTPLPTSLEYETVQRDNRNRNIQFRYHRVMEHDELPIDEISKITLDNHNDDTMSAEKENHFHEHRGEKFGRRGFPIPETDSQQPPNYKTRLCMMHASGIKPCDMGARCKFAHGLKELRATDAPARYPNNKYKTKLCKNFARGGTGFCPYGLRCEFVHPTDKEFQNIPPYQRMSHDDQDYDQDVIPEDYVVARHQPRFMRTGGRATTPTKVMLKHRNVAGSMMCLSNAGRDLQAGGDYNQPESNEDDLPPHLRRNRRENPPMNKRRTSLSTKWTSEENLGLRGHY
# [14] = Luminescence-based counterscreen assay for KLF5 inhibitors: dose response cell-based high throughput screening assay to identify cytotoxic compounds using the IEC-6 intestinal epithelial cell line. [Related pubchem assays: 1700 (Primary screen.), 1834 (Confirmation screen.), 1858 (Summary AID.), 1905 (Counterscreen.)]; format: functional
# Fatty acid synthase [15] = molecular target: T6, Fatty acid synthase (Homo sapiens, UniProt P49327); test: inhibition of human FAS-TE enzyme activity – biochemical, endpoint fluorescence intensity, uHTS hits, dose response (AID 624327); format: functional;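 note: fluorescence from hydrolysis of an O-methyl fluorescein acyl ester substrate by the enzyme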
# Fatty acid synthase [16] = molecular target: T6, Fatty acid synthase; test: inhibition of human FAS-TE enzyme activity – biochemical, kinetic fluorescence intensity, dose response (AID 624326); format: functional;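 note: rate of fluorescence rise from hydrolysis of a fluorogenic O-methyl fluorescein ester substrate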
# [17] = NIH3T3 cell viability loss – ATP luminescence, mouse fibroblasts, counter-screen, dose response (AID 2010); format: functional, cell-based;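 note: cells exposed to compound for about 90 hours before reading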
# [18] = Trypanosoma cruzi growth suppression in host cells – NIH3T3 host cells, beta-gal luminescence, confirmation (AID 2044); format: functional, cell-based;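 note: intracellular parasites grown in NIH/3T3 mouse fibroblasts as host cells; luminescent beta-galactosidase reporter signal from transgenic T. cruzi replicating inside host cells; inhibitors lower the luminescence signal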
# [19] = molecular target: T7, Alkaline phosphatase, tissue-nonspecific isozyme (Homo sapiens, UniProt P05186); test: potency against alkaline phosphatase TNAP – biochemical, luminescent, dose response, SAR follow-up (AID 1056)
# T7 sequence (P05186 whole entry): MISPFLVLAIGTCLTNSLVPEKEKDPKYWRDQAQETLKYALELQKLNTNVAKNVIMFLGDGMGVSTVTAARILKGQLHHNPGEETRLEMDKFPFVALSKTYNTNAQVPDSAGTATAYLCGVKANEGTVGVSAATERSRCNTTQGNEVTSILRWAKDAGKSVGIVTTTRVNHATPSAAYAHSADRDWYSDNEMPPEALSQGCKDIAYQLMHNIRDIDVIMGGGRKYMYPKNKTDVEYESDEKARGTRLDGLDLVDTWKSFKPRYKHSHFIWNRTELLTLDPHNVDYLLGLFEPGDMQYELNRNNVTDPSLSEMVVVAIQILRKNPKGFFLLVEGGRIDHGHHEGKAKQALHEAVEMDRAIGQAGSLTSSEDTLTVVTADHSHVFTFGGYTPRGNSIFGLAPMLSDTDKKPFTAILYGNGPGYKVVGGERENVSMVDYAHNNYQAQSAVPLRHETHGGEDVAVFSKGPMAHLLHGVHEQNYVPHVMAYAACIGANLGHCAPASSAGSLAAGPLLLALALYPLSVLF
# [20] = molecular target: Glyceraldehyde-3-phosphate dehydrogenase (Homo sapiens, UniProt P04406)
# cells [21] = format: functional, cell-based
# cells [22] = format: functional, cell-based; remark: listed apart in the source
# [23] = Luminescence Cell-Based Dose Confirmation HTS to Identify Activators of 5'UTR Stem-Loop Driven Alpha-Synuclein mRNA Translation in H4 Neuroglioblastoma Cells. [Related pubchem assays: 1829 (Project Summary), 1814 (Primary HTS)]; format: functional
# H4 = test: Luminescence Cell-Based Dose Response HTS to Identify Activators of 5'UTR Stem-Loop Driven Prion Protein mRNA Translation in H4 Neuroglioblastoma Cells. [Related pubchem assays: 1829 (Project Summary), 1814 (Primary HTS)]; format: functional; conditions: Homo sapiens
# G-protein coupled receptor 55, sequence (Q9Y2T6 whole entry): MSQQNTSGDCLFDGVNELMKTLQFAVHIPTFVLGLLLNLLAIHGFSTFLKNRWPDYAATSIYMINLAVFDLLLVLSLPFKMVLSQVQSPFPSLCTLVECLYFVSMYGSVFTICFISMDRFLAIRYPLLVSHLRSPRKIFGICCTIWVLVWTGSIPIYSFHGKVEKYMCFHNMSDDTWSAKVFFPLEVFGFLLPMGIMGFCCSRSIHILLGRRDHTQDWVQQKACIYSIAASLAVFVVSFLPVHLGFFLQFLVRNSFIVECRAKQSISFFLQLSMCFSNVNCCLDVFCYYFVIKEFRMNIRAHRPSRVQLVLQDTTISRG
# Melanocortin receptor 4, sequence (P32245 whole entry): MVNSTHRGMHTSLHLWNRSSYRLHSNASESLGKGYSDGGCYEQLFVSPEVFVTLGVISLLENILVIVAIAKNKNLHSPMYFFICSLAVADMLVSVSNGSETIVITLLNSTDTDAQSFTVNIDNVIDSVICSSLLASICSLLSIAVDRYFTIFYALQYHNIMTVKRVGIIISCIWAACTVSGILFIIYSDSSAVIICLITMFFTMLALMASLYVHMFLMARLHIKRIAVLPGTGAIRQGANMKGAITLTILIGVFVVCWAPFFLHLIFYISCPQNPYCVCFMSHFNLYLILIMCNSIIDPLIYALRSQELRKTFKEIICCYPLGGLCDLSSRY
# Glyceraldehyde-3-phosphate dehydrogenase, sequence (P04406 whole entry): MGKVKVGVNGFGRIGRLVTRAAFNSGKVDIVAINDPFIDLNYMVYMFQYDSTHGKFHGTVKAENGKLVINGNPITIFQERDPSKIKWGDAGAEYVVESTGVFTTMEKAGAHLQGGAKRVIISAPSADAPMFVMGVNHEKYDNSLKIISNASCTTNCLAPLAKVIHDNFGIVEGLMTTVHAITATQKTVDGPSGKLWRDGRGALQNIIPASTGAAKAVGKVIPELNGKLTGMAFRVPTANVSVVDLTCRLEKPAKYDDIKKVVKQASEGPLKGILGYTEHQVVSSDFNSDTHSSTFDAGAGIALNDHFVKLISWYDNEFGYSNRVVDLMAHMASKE
# Nonstructural protein 1, sequence (Q194T2 whole entry): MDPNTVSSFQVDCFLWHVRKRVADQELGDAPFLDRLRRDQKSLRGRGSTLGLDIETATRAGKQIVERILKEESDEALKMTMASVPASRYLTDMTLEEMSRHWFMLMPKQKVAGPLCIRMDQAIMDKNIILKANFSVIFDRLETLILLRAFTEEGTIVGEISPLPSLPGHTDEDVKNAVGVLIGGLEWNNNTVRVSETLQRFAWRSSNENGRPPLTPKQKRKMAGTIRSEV
# T6 sequence (P49327 whole entry): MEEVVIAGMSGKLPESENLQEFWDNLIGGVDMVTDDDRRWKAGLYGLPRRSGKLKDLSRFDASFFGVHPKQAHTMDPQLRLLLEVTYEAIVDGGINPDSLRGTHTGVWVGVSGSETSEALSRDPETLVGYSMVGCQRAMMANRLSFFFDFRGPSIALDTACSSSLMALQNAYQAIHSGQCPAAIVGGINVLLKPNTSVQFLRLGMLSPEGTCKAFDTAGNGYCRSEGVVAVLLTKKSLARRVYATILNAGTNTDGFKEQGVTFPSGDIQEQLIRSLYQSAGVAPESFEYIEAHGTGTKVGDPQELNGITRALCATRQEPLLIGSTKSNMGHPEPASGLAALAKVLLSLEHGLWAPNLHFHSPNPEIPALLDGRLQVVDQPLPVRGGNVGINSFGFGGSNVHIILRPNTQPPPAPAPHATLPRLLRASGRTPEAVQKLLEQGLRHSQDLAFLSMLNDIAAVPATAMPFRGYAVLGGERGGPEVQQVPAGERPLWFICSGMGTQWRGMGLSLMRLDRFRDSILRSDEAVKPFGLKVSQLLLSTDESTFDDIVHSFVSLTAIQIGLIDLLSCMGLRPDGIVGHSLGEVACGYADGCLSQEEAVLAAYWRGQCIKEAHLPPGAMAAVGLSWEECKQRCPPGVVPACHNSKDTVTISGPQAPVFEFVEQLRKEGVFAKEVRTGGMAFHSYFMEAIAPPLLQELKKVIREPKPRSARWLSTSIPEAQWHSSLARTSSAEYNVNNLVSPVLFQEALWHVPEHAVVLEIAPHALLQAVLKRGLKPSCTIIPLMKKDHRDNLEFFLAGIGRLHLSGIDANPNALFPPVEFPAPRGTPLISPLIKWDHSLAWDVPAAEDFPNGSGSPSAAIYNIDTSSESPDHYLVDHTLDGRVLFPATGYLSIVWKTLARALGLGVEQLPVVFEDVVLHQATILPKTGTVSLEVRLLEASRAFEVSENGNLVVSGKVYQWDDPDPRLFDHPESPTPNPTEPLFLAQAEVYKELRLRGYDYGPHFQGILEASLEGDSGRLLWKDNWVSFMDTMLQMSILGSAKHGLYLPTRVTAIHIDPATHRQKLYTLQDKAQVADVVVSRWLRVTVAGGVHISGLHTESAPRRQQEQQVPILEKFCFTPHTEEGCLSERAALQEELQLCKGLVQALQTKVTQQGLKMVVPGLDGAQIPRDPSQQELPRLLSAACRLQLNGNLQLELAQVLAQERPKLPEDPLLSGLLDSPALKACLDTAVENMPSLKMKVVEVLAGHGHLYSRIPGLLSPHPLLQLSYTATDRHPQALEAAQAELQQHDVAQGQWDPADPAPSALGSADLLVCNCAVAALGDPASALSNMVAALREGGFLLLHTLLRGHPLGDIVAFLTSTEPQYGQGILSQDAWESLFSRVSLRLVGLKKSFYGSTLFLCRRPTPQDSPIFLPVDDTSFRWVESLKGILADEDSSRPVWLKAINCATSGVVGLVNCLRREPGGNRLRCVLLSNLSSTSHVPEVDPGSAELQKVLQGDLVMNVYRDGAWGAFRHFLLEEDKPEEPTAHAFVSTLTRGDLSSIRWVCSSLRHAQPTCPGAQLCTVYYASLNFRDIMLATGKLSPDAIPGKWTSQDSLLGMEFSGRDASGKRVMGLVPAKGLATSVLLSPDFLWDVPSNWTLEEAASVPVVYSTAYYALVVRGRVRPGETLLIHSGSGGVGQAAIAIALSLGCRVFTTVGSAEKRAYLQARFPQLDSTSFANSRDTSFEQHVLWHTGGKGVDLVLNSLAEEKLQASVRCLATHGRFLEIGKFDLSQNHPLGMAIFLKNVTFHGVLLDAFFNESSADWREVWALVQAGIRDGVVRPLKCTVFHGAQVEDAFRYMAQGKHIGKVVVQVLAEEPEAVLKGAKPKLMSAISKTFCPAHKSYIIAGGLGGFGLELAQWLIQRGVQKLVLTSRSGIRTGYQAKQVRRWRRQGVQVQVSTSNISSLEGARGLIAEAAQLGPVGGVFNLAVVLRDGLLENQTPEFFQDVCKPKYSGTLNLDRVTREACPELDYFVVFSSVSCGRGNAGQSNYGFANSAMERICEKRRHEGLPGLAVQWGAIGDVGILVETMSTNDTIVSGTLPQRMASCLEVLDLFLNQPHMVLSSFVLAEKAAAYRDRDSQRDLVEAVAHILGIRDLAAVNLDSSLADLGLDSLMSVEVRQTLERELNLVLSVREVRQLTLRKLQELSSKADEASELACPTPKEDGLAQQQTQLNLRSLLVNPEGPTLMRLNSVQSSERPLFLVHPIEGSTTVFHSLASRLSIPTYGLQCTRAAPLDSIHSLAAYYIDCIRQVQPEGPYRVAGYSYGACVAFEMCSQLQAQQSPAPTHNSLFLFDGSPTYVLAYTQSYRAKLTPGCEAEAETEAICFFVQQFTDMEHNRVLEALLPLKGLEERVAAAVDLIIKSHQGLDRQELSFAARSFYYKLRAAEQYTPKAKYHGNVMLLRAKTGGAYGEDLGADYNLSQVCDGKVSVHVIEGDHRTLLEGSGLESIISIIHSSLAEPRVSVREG
# Estrogen receptor beta, sequence (Q92731 whole entry): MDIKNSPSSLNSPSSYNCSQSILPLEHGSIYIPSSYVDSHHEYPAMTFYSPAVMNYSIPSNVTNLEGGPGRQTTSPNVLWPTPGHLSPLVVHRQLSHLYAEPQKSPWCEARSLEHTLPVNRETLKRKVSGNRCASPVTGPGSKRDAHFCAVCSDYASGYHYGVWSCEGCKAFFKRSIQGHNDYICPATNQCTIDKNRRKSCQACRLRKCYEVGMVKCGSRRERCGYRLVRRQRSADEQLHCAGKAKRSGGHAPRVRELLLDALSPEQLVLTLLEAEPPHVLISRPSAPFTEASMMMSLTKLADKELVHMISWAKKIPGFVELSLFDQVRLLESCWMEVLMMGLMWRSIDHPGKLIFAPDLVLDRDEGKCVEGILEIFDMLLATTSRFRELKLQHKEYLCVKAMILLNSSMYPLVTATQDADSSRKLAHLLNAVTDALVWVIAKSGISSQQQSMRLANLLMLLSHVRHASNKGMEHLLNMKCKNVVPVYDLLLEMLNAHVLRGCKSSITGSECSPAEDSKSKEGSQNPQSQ
compound,measurement,setting,value
CCn1ncc(C2=NOC(C(=O)NCc3ccccc3)C2)c1C (configuration not stated),IC50,[1],> 80 µM (inactive)
CCCc1cc(O)nc(SCC(=O)Nc2ccc(C(=O)OC)cc2)n1,IC50,Estrogen receptor beta,> 50 µM (not active)
CCC1(c2ccccc2)ON(c2c(Br)cccc2Br)C1=O (configuration not stated),CC50,Vero,> 25 µM (active)
same,CC50,[2],21.4 µM (active)
O=C(Nc1ncc(Cc2ccccc2)s1)C1COc2ccccc2O1 (configuration not stated),EC50,[3],11.4 µM (active)
same,EC50,[4],0.179 µM (active)
same,EC50,[5],0.465 µM (active)
same,EC50,[6],< 0.1 µM (active)
Cn1cnnc1SCc1ccc(C(=O)N=Nc2c(O)n(Cc3ccc(Cl)cc3)c3ccccc23)cc1,CC50,[7],16.5 µM (active)
same,EC50,[8],3.12 µM (active)
same,EC50,Streptokinase A,18 µM (inconclusive)
same,EC50,Streptococcus,> 150 µM (not active)
same,CC50,[2],21.2 µM (active)
O=C(Nc1ccccc1-c1nc2ccccc2[nH]1)c1ccc(N2C(=O)CCC2=O)cc1,AC50,CAAX prenyl protease 2,75.6 µM (active)
same,IC50,Melanocortin receptor 4,> 21.5 µM (inactive)
same,IC50,[9],> 64.6 µM (inactive)
O=C(NC(=S)Nc1ccccc1N1CCOCC1)c1ccc(Br)cc1,IC50,[10],1.08 µM (active)
CCOC(=O)c1c(C(C)(C)C)oc2ccc(O)cc12,IC50,[11],> 20 µM (inactive)
same,IC50,[10],4.47 µM (active)
c1ccc(-c2nnc(-c3ccccn3)nn2)nc1,EC50,[12],> 300 µM (not active)
same,IC50,Nonstructural protein 1,12.6 µM (active)
same,EC50,[13],49.8 µM (inconclusive)
same,CC50,[2],34.2 µM (active)
CN(C)c1cc(O)c(C(S)=Nc2ccccc2)c(N(C)C)c1,AC50,CAAX prenyl protease 2,52.2 µM (active)
CCOC(=O)c1sc(NC(=O)c2ccc3ncsc3c2)nc1C,IC50,[14],> 39.8 µM (not active)
N#CC1=C2N=C(N)c3ccccc3N2C2=C(C(=O)CCC2)C1c1cccc(Cl)c1 (configuration not stated),IC50,[10],8.48 µM (active)
CC(C)(CNC(=O)c1ccc([N+](=O)[O-])c(Cl)c1)CNC(=O)c1ccc([N+](=O)[O-])c(Cl)c1,IC50,Fatty acid synthase [15],5.44 µM (active)
same,IC50,Fatty acid synthase [16],6.06 µM (active)
same,IC50,[10],3.11 µM (active)
same,IC50,Melanocortin receptor 4,> 64.6 µM (inactive)
same,IC50,[9],> 64.6 µM (inactive)
COc1ccc(C2c3[nH]c4ccccc4c3CCN2Cc2cccn2-c2ncccn2)cc1C (configuration not stated),EC50,[17],> 60 µM (inconclusive)
same,CC50,[2],> 40 µM (active)
same,EC50,[18],1.28 µM (active)
Cc1c(C(=O)O)nnn1-c1ccc(Cl)cc1,IC50,[19],> 100 µM (inactive)
same,IC50,[20],> 100 µM (not active)
COc1cccc(S(=O)(=O)Nc2ccncn2)c1,IC50,[19],> 100 µM (inactive)
same,IC50,[20],> 100 µM (not active)
Cc1ccc(C(=O)N/N=C/c2cc(Br)ccc2O)cn1,EC50,[8],3.17 µM (active)
same,IC50,Nonstructural protein 1,12.3 µM (active)
same,IC50,[14],5.56 µM (active)
same,EC50,cells [21],16.1 µM (active)
same,EC50,cells [22],> 350 µM (not active)
same,EC50,Streptococcus,5.99 µM (active)
CN1CCN(Cc2c(C(=O)N/N=C/c3cccc(Br)c3)nnn2-c2nonc2N)CC1,CC50,Vero,10.1 µM (active)
same,AC50,CAAX prenyl protease 2,2.08 µM (active)
C/C(=N\OC(=O)c1ccc(F)cc1)c1sc(-c2ccc(Cl)cc2)nc1C,EC50,[23],< 0.1 µM (active)
same,EC50,[3],0.37 µM (active)
same,EC50,[4],0.301 µM (active)
same,EC50,H4,< 0.1 µM (active)
same,EC50,[5],0.236 µM (active)
same,EC50,[6],0.122 µM (active)
